Laboratory results as given in US20080118489A1, “Charge-Modified Lysozyme Antimicrobial Compositions, Surfactants, and Methods for Infections and Cystic Fibrosis” (priority 2005, published 2008).
Converted amounts (≈) assume the structure as drawn.

Assays:
Calf thymus (CT) DNA = assay: SAXS of DNA + tobramycin (+ cationic lipid) suspensions; type: binding
Text: For our studies of the sequestration of aminoglycoside antibiotics by model CF sputum and subsequent release by the administration of surfactants we used the following materials. The aminoglycoside antibiotic used in our experiments was Tobramycin (Sigma Aldrich), commonly used to treat infections of Pseudomonas aeruginosa in CF patients. […] For the DNA+tobramycin experiments we used Calf thymus (CT) DNA (USB Corp. Cleveland Ohio), purified it using standard techniques, and resuspended it in an aqueous solution of 100 mM NaCl 5 mM Tris and 5 mM PIPES adjusted to pH 7. DNA has a charge of approximately −2/base pair.
Surfactant materials used in the present experiments were a mixture of two lipids DOTAP (1,2-Dioleoyl-3-Trimethylammonium-Propane) and DOPE (1,2-Dioleoyl-sn-Glycero-3-Phosphoethanolamine) (Avanti Polar lipids, Alabaster Al.) in mass ratios of about 70:30 and about 25:75. DOTAP is a cationic lipid (charge of +1) with no curvature, and DOPE is a neutral lipid with negative curvature. Briefly, the lipids were first dissolved in chloroform, then dried under nitrogen and redissolved in an aqueous solution. The aqueous salt solution was then sonicated to form unilamellar lipid vescicles, and filtered through 0.2 micron pores.
Aminoglycoside antibiotic sequestration by negatively charged bio-polymers in respiratory mucous of CF patients was measured via two techniques. The first method was to use x-ray diffraction techniques to discern the structure of suspensions of mixtures of biopolymers and antibiotic. Specific x-ray diffraction studies were done to determine the structure of mixtures of the DNA with tobramycin and the lipid mixture. The isoelectric DNA-lipid-monovalent salt solutions were sealed in 1.5 mm quartz capillaries (Hilgenberg GmbH; Malsfeld, Germany) and mixed thoroughly by centrifugation. The approximate sample volume in the capillary was 30 μl-60 μl. SAXS experiments were performed as described previously. Tobramycin has charge of approximately +5 at physiological pH, whereas DNA is negatively charged, thus when the ratio of net DNA charge is approximately equal to the net tobramycin charge (T/D˜1), the tobramycin condenses the DNA. The resulting structure is a bundle of DNA. The structures observed via x-ray diffraction indicate whether or not the tobramycin is sequestered with the DNA or free in suspension. The present invention uses positively charged lipids to replace the tobramycin in these bundles, thereby increasing the efficacy of the antibiotic. Consequently, our experiments used a fixed DNA concentration of 3 mg/ml (x-ray experiments) and a varied concentration of tobramycin and/or lipid. Concentrations are varied such that the ratio of positive to negative charges is known. Similar x-ray diffraction studies can be conducted wherein mucin, instead of DNA, is the sequestration agent to examine mucin+tobramycin+lipid complexes and kinetics.

[1] = test system: Pseudomonas aeruginosa (PA01); assay: Bacterial killing assay, tobramycin with or without mucin; type: cell-based
Experimental: Tobramycin sequestration was also measured via bacteriological killing assays. In these bacterial killing assay experiments Pseudomonas aeruginosa (PA01), the primary bacteria responsible for infection in CF patients, was incubated in the presence of mucin, DNA, tobramycin, lipid or various mixtures of these four materials. Killing assays were performed in the following manner: PA01 was grown in cation adjusted Mueller-Hinton media to a concentration greater than 5×10^8, sedimented by centrifugation and resuspended in a buffered solution of 5 mM Tris 5 mM PIPES and 100 mM NaCl at pH 7.2. A quantity of […]. of PAO1 were incubated for 3.5 hours in the buffered salt solution with varied concentrations of tobramycin, DNA, mucin, and lipids. The mucin concentrations were either 0 mg/ml (control) or 10 mg/ml which is near the physiologically measured concentrations of mucin. Lipids added to the bacterial solution were added in varying concentrations in order to determine the amount needed to release tobramycin from its strong interaction with mucin and/or DNA. The bacterial solution was serially diluted and plated on MH-agar plates. Plates were incubated overnight and the number of bacterial colonies counted.

F-actin = target: T1, F-actin (Oryctolagus cuniculus, UniProt P68135); assay: SAXS of F-actin / hen egg white lysozyme bundles; type: binding, rabbit
T1 construct: prepared from a lyophilized powder of rabbit skeletal muscle; purchased Cytoskeleton, Inc. (Denver, Col.); host or cells: rabbit skeletal muscle (tissue-derived)
Experimental: Monomeric G-actin (MW 42,000) was prepared from a lyophilized powder of rabbit skeletal muscle purchased from Cytoskeleton, Inc. (Denver, Col.). The non-polymerizing G-actin solution contained a 5 mM TRIS buffer at pH 8.0, with 0.2 mM CaCl2, 0.5 mM ATP, and 0.2 mM DTT and 0.01% NaN3. G-actin (2 mg/ml) was polymerized into F-actin (linear charge density λA˜−1 e /2.5 Å at pH 7) upon the addition of salt (100 mM KCl). Human plasma gelsolin (Cytoskeleton, Inc., Denver, Col.) was used to control the average F-actin length between 0.1 μm to 10 μm. The filaments were treated with phalloidin (Sigma Aldrich, St. Louis, Mo., MW 789.2) to prevent actin depolymerization and resuspended to a final concentration of ˜26.67 mg/ml using Millipore (Billerica, Mass.) H2O (18.2MΩ). Hen Egg White Lysozyme (MW 14,300, Sigma Aldrich, St. Louis, Mo.) was dissolved in Millipore H2O (18.2MΩ) to a final concentration ˜25 mg/ml. Lysozyme carries a pH dependent charge of +9 or +10 and has dimensions of approximately ˜26Å×26Å×45 Å.
The F-actin—lysozyme isoelectric point is found at a concentration ratio of ˜2.5:1 F-actin:lysozyme. X-ray samples were prepared at various F-actin:lysozyme concentration ratios on either side of the isoelectric point, including 2:1, 2.5:1, 3:1, and 5:1. […]

Compound | ratio of tobramycin charge to DNA charge (T/D) at which bundled DNA peak appears (Calf thymus (CT) DNA; DNA 3 mg/ml, pH 7) | tobramycin concentration at which bundled DNA peak appears (Calf thymus (CT) DNA; DNA 3 mg/ml, pH 7) [mM] | preference of interaction, DNA versus F-actin (Calf thymus (CT) DNA; F-actin 5 mg/ml + DNA 1 mg/ml + tobramycin) | sequestration of tobramycin by DNA at raised lipid concentration (Calf thymus (CT) DNA; T/D approaching 1, L/D=2) | sequestration of tobramycin by DNA without lipid (Calf thymus (CT) DNA; T/D=0.5 and T/D=0.9, absence of lipids) | sequestration of tobramycin by DNA with cationic lipid (Calf thymus (CT) DNA; lipid concentration greater than or equal to that required for DNA charge neutralization) | tobramycin concentration until which mucin inhibits killing ability ([1]; 10 mg/ml mucin) | MIC ([1]; Pseudomonas aeruginosa, 3.5 hours, 5 mM Tris 5 mM PIPES 100 mM NaCl pH 7.2, read-out: minimal inhibitory concentration (MIC)) [µg/mL] | biological accessibility, fraction of the available dose ([1]; sequestration by anionic polyelectrolytes of CF sputum) | NaCl concentration up to which the F-actin-lysozyme close pack bundling peak increases (F-actin) [mM] | salt concentration above which the lysozyme-actin bundling peak disappears (F-actin; NaCl)
NC[C@H]1O[C@H](O[C@H]2[C@H](O)[C@@H](O[C@H]3O[C@H](CO)[C@@H](O)[C@H](N)[C@H]3O)[C@H](N)C[C@@H]2N)[C@H](N)C[C@@H]1O [tobramycin] | ~1 | 1.9 | preferentially interacts with DNA over F-actin | again unsequestered by the DNA | sequestered by DNA | not sequestered | 20 × the minimal inhibitory concentration (MIC) | ~5 (≈ 10.7 µM) | 1/20 | – | –
lysozyme: Hen Egg White Lysozyme (MW 14,300, Sigma Aldrich) | – | – | – | – | – | – | – | – | – | ~150 | above 200 mM
